Results: patent US11084814B2, “Pyrido[3, 4-d]pyrimidine derivative and pharmaceutically acceptable salt thereof” (Teijin Pharma Limited, priority 2016, dated 2021)

Assays:
CDK2/cyclin A2 = target: T1, CDK2/cyclin A2 (Homo sapiens, UniProt P24941); experiment: Human CDK2/cyclin A2 inhibitory activity (QS S Assist CDK2/Cyclin A2_FP Kit, IMAP fluorescent polarization); assay type: biochemical; settings: read-out: CDK2 Activity symbol
T1 construct: purchased Carna Biosciences, Inc. QS S Assist CDK2/Cyclin A2_FP Kit
How it was run: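 Kit CDK2/cyclin A2 (2.5 ng/well) was reacted with kit ATP/substrate/metal in 20 mM HEPES pH 7.4, 0.01% Tween 20 and 2 mM DTT for 60 min at room temperature. IMAP binding reagent was added for 30 min, then fluorescence polarization was read at 485/535 nm. IC50 came from dose-response fitting of percent inhibition.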

CDK4/cyclin D3 = target: T2, CDK4/cyclin D3 (Homo sapiens, UniProt P11802); experiment: Human CDK4/cyclin D3 inhibitory activity (QS S Assist CDK4/Cyclin D3_FP Kit, IMAP fluorescent polarization); assay type: biochemical; settings: read-out: CDK4 Activity symbol
T2 construct: purchased Carna Biosciences, Inc. QS S Assist CDK4/Cyclin D3_FP Kit
T2 sequence (P11802 whole entry): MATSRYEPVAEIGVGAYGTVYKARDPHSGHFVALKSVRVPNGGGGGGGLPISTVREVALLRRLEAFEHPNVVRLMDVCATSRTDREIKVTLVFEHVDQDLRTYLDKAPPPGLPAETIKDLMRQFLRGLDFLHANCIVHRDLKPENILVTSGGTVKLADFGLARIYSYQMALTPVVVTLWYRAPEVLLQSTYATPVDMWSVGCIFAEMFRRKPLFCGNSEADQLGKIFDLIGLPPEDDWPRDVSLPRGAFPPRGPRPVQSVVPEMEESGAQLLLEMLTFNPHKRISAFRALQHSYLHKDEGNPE
T2 sequence (P30281 whole entry partner): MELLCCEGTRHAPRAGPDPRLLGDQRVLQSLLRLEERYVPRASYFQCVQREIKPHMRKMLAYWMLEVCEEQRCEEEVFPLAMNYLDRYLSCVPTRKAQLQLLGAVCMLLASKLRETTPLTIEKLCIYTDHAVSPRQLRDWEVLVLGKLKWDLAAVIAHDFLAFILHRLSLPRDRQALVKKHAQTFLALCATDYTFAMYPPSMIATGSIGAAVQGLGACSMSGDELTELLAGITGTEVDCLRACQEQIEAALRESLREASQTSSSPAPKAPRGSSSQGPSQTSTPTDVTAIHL
How it was run: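 Kinase reactions used kit CDK4/cyclin D3 at 12.5–25 ng/well with the kit ATP/substrate/metal mix in 20 mM HEPES (pH 7.4), 0.01% Tween20 and 2 mM DTT, run 45 min at room temperature. Phosphorylation was detected by IMAP fluorescence polarization (ex 485/em 535 nm) after 30 min binding in the dark. IC50 was fitted from percent inhibition against DMSO controls with and without enzyme.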

SMILES | IC50 (CDK2/cyclin A2) [nM] | IC50 (CDK4/cyclin D3) [nM]
C[C@H](CO)c1cc2cnc(Nc3ccc(N4CCNCC4=O)cn3)nc2c(N2CCCCC2)n1 [Compound 192] | ≥ 100 | 10 to 100
C[C@H](CO)c1cc2cnc(Nc3ccc4c(n3)CCN(CCO)C4)nc2c(N2CCCCC2)n1 [Compound 193] | ≥ 100 | 10 to 100
C[C@@H](CO)c1cc2cnc(Nc3ccc(N4CCNCC4=O)cn3)nc2c(N2CCCCC2)n1 [Compound 194] | ≥ 100 | < 10
C[C@H](CO)c1cc2cnc(Nc3ccc(CN4CCN(CCO)CC4)cn3)nc2c(N2CCCCC2)n1 [Compound 195] | ≥ 100 | 10 to 100
C[C@@H](O)c1cc2cnc(Nc3ccc4c(n3)CCN(CC#N)C4)nc2c(N2CCCCC2)n1 [Compound 196] | ≥ 100 | 10 to 100
C[C@@H](O)c1cc2cnc(Nc3ccc4c(n3)CCN(CC3COC3)C4)nc2c(N2CCCCC2)n1 [Compound 197] | ≥ 100 | 10 to 100
C[C@@H](O)c1cc2cnc(Nc3ccc(CN4CCN(C)CC4)cn3)nc2c(N2CCC[C@@H](F)C2)n1 [Compound 198] | ≥ 100 | < 10
C[C@@H](O)c1cc2cnc(Nc3ccc(CN4CCN(CCO)CC4)cn3)nc2c(N2CCC[C@@H](F)C2)n1 [Compound 199] | ≥ 100 | < 10
C[C@@H](O)c1cc2cnc(Nc3ccc4c(n3)CCN(C3CN(C)C3)C4)nc2c(N2CCCCC2)n1 [Compound 200] | ≥ 100 | < 10
C[C@@H](O)c1cc2cnc(Nc3ccc4c(n3)CN(CCO)C4)nc2c(N2CCCCC2)n1 [Compound 201] | ≥ 100 | < 10
C[C@H](O)Cc1cc2cnc(Nc3ccc(CN4CCN(CCO)CC4)cn3)nc2c(N2CCCCC2)n1 [Compound 202] | ≥ 100 | 10 to 100
C[C@H](O)Cc1cc2cnc(Nc3ccc(N4CCNCC4=O)cn3)nc2c(N2CCCCC2)n1 [Compound 203] | ≥ 100 | < 10
C[C@H](O)Cc1cc2cnc(Nc3ccc4c(n3)CCN(CCO)C4)nc2c(N2CCCCC2)n1 [Compound 204] | ≥ 100 | 10 to 100
c1cc(Nc2ncc3cc(C4CCOC4)nc(N4C5CCC4CC5)c3n2)ncc1CN1CCNCC1 (stereo not drawn) [Compound 205] | ≥ 100 | < 10
c1cc(Nc2ncc3cc(C4CCOC4)nc(N4CCCCC4)c3n2)ncc1CN1CCNCC1 (stereo not drawn) [Compound 206] | ≥ 100 | < 10
c1cc(N2CCNCC2)nnc1Nc1ncc2cc(C3CCOC3)nc(N3C4CCC3CC4)c2n1 (stereo not drawn) [Compound 207] | ≥ 100 | < 10
c1cc(N2CCNCC2)nnc1Nc1ncc2cc(C3CCOC3)nc(N3CCCCC3)c2n1 (stereo not drawn) [Compound 208] | ≥ 100 | < 10
C[C@@H](O)c1cc2cnc(Nc3ccc4c(n3)CCN(C(=O)[C@H]3CCCN3)C4)nc2c(N2CCCCC2)n1 [Compound 209] | ≥ 100 | < 10
C[C@@H](O)c1cc2cnc(Nc3ccc4c(n3)CCN(C(=O)[C@H]3CCNC3)C4)nc2c(N2CCCCC2)n1 [Compound 210] | ≥ 100 | < 10
C[C@@H](O)c1cc2cnc(Nc3ccc4c(n3)CCN(C(=O)[C@H]3CCCCN3)C4)nc2c(N2CCCCC2)n1 [Compound 211] | ≥ 100 | < 10
C[C@@H](O)c1cc2cnc(Nc3ccc4c(n3)CCN(C(=O)[C@H]3C[C@H](O)CN3)C4)nc2c(N2CCCCC2)n1 [Compound 212] | ≥ 100 | < 10

SMILES | IC50 (CDK2/cyclin A2) [nM] | IC50 (CDK4/cyclin D3) [nM]
C[C@@H](O)c1cc2cnc(Nc3ccc4c(n3)CCN(C(=O)[C@H]3C[C@@H](O)CN3)C4)nc2c(N2CCCCC2)n1 [Compound 213] | ≥ 100 | < 10
C[C@@H](O)c1cc2cnc(Nc3ccc4c(n3)CCN(C(=O)[C@@H]3CCCNC3)C4)nc2c(N2CCCCC2)n1 [Compound 214] | ≥ 100 | < 10
C[C@@H](O)c1cc2cnc(Nc3ccc4c(n3)CCN(C(=O)[C@H]3CCN3)C4)nc2c(N2CCCCC2)n1 [Compound 215] | ≥ 100 | < 10
C[C@@H](O)c1cc2cnc(Nc3ccc4c(n3)CCN(C(=O)C3CNCCO3)C4)nc2c(N2CCCCC2)n1 (stereo partly drawn) [Compound 216] | ≥ 100 | < 10
CC(O)c1cc2cnc(Nc3ccc(OC4CCN(CCO)CC4)cn3)nc2c(N2C3CCC2CC3)n1 (stereo not drawn) [Compound 218] | ≥ 100 | < 10
C[C@@H](O)c1cc2cnc(Nc3ccc(OC4CCN(CCO)CC4)cn3)nc2c(N2CC[C@@H](F)C2)n1 [Compound 219] | ≥ 100 | < 10
C[C@@H](O)c1cc2cnc(Nc3ccc(OC4CCNCC4)cn3)nc2c(N2C3CCC2CC3)n1 [Compound 220] | ≥ 100 | < 10
C[C@@H](O)c1cc2cnc(Nc3ccc(OC4CCNCC4)cn3)nc2c(N2CC[C@@H](F)C2)n1 [Compound 221] | ≥ 100 | < 10
C[C@@H](O)c1cc2cnc(Nc3ccc(OC4CCN(CCO)CC4)cn3)nc2c(N2CCC[C@H](F)C2)n1 [Compound 222] | ≥ 100 | < 10
C[C@@H](O)c1cc2cnc(Nc3ccc4c(n3)CCN(C(=O)[C@@H]3CCCN3C)C4)nc2c(N2C3CCC2CC3)n1 [Compound 223] | ≥ 100 | < 10
C[C@@H](O)c1cc2cnc(Nc3ccc4c(n3)CCN(C(=O)[C@H]3CCCN3C)C4)nc2c(N2C3CCC2CC3)n1 [Compound 224] | ≥ 100 | < 10
C[C@@H](O)c1cc2cnc(Nc3ccc4c(n3)CCN(C(=O)[C@H]3CCN(C)C3)C4)nc2c(N2C3CCC2CC3)n1 [Compound 225] | ≥ 100 | < 10
C[C@@H](O)c1cc2cnc(Nc3ccc4c(n3)CCN(C(=O)[C@@H]3CCN(C)C3)C4)nc2c(N2C3CCC2CC3)n1 [Compound 226] | ≥ 100 | < 10
C[C@@H](O)c1cc2cnc(Nc3ccc4c(n3)CCN(C(=O)[C@@H]3C[C@@H](O)CN3C)C4)nc2c(N2C3CCC2CC3)n1 [Compound 227] | ≥ 100 | < 10
C[C@@H](O)c1cc2cnc(Nc3ccc4c(n3)CCN(C(=O)CN3CCCC3)C4)nc2c(N2C3CCC2CC3)n1 [Compound 228] | ≥ 100 | < 10
C[C@@H](O)c1cc2cnc(Nc3ccc4c(n3)CCN(C(=O)CN3CC(O)C3)C4)nc2c(N2C3CCC2CC3)n1 [Compound 229] | ≥ 100 | < 10
C[C@@H](O)c1cc2cnc(Nc3ccc4c(n3)CCN(C(=O)CN3CCC3)C4)nc2c(N2C3CCC2CC3)n1 [Compound 230] | ≥ 100 | < 10
C[C@@H](O)c1cc2cnc(Nc3ccc4c(n3)CCN(C(=O)CN3CC[C@@H](F)C3)C4)nc2c(N2C3CCC2CC3)n1 [Compound 231] | ≥ 100 | < 10
C[C@@H](O)c1cc2cnc(Nc3ccc4c(n3)CCN(C(=O)CN3CC[C@@H](O)C3)C4)nc2c(N2C3CCC2CC3)n1 [Compound 232] | ≥ 100 | < 10
C[C@@H](O)c1cc2cnc(Nc3ccc4c(n3)CCN(C(=O)CN3CC[C@H](O)C3)C4)nc2c(N2C3CCC2CC3)n1 [Compound 233] | ≥ 100 | < 10
C[C@@H](O)c1cc2cnc(Nc3ccc4c(n3)CCN(C(=O)CNC3COC3)C4)nc2c(N2C3CCC2CC3)n1 [Compound 234] | ≥ 100 | 10 to 100
